Experimental data as given in ChEMBL document CHEMBL1154495, “1,5-Benzothiazepine, a versatile pharmacophore: a review” (Eur J Med Chem, 2008).
pEC50: −log10 of the molar value.

Tested on: Human immunodeficiency virus 1
Assay: Antiviral activity against HIV1 infected in human MT4 cells assessed as inhibition of virus-induced cytopathicity
Assay type: functional, organism-based
Settings: Human immunodeficiency virus 1, MT4

In the case of `CC(C)=CCn1cc2c(c1)S(=O)(=O)c1cc(Cl)ccc1NC2=O`, the pEC50 was 6.52.
